The target in assay [1] is Bifunctional 3'-5' exonuclease/ATP-dependent helicase WRN (Homo sapiens, UniProt Q14191). Briefly: ADP-Glo Kinase Assay. How it is done:
ATPase activity was measured using the ADP-Glo Kinase Assay following the manufacturers recommended protocol.
On the technique in general: ADP-Glo first removes unused ATP, then detects ADP through luciferase.

Assay [2] addresses T1, Bifunctional 3'-5' exonuclease/ATP-dependent helicase WRN [480-1251] (UniProt Q14191).
T1 construct: 480-1251
Briefly: Biochemical Activity Assays.

One may read the IC50 as the concentration that gives 50% inhibition. Low values mean higher potency, high ones lower potency.

Bifunctional 3'-5' exonuclease/ATP-dependent helicase WRN, sequence (Q14191 whole entry): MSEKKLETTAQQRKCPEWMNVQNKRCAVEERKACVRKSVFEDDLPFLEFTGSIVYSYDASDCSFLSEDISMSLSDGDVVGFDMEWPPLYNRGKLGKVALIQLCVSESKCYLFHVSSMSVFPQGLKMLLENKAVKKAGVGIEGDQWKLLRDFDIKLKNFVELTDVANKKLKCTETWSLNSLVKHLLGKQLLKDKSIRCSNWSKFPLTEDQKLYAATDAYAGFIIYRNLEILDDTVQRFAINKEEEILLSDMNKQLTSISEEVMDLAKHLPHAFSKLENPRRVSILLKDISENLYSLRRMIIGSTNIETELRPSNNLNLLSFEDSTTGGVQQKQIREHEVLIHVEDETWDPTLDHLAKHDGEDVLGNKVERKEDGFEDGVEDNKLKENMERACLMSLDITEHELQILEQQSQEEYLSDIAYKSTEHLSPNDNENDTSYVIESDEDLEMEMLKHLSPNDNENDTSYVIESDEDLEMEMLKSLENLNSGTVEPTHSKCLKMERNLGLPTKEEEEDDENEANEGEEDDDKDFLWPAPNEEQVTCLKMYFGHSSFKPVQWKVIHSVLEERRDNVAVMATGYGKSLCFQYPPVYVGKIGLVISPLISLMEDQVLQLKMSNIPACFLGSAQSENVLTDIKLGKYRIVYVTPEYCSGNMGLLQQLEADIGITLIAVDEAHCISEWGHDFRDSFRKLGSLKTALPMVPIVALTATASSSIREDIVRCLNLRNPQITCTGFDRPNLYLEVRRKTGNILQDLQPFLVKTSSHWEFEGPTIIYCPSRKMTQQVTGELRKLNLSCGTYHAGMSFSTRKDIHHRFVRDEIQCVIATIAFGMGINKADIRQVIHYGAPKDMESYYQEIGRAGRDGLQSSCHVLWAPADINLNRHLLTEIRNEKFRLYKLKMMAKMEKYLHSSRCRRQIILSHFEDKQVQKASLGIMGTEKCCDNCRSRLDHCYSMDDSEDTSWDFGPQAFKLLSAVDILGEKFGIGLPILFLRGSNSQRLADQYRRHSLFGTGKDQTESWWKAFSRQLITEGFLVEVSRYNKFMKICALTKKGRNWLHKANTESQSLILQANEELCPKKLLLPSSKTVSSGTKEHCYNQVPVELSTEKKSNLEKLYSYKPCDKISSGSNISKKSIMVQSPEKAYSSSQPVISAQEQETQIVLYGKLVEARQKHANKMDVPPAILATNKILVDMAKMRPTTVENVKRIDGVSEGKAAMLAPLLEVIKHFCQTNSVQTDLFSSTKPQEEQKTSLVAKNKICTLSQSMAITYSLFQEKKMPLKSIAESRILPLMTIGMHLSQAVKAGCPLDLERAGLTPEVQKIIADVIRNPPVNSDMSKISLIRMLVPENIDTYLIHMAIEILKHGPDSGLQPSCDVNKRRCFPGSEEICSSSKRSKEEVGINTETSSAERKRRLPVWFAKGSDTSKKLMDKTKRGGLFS
T1 sequence (Q14191 480-1251): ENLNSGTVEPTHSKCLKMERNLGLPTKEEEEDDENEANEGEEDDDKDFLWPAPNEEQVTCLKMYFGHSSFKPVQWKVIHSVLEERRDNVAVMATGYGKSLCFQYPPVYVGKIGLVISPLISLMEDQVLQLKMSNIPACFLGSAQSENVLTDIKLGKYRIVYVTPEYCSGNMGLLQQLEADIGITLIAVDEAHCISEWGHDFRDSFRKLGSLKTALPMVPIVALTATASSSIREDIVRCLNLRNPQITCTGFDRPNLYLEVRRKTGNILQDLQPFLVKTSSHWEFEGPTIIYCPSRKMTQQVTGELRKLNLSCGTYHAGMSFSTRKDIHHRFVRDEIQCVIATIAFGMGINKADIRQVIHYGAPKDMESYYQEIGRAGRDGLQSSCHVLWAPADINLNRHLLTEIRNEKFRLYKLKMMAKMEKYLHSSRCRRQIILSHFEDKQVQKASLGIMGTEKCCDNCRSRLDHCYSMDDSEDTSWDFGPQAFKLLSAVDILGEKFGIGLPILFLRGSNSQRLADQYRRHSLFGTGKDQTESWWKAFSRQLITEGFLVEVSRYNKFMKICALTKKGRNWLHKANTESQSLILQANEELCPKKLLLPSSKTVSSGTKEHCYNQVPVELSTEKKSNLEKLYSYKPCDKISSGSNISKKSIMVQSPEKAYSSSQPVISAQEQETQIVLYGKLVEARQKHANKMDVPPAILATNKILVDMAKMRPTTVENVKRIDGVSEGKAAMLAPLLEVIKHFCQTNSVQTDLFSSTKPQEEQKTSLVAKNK

For the compound `CCc1c(N2CCN(C(=O)c3ncnc(C)c3O)CC2)c(=O)n2nc(-c3ccc4c(c3)COC4(C)C)nc2n1CC(=O)Nc1ccc(C(F)(F)F)cc1Cl` [WO2025049746, Example 164], the IC50 in assay [1] stood at 44 nM; in assay [2] it was 45 nM.

Turning to `CCc1c(N2CCN(C(=O)c3ncnc(C)c3O)CC2)c(=O)n2nc(-c3ccc4c(c3)C(C)(C)OC4)nc2n1CC(=O)Nc1ccc(C(F)(F)F)cc1Cl` [WO2025049746, Example 165], the IC50 stood at 53 nM in assay [1] and 42 nM in assay [2].

Turning to `CCc1c(N2CCN(C(=O)c3ncnc(C)c3O)CC2)c(=O)n2nc(-c3cnn4c3CCC4)nc2n1CC(=O)Nc1ccc(C(F)(F)F)cc1Cl` [WO2025049746, Example 166], the 50% inhibitory concentration (IC50) was found to be 16 nM in assay [1] and 14 nM in assay [2].

With `CCc1c(N2CCN(C(=O)c3ncnc(C)c3O)CC2)c(=O)n2nc(-c3cnn4c3CCCC4)nc2n1CC(=O)Nc1ccc(C(F)(F)F)cc1Cl` [WO2025049746, Example 167], the half-inhibitory concentration (IC50) in assay [1] amounted to 60 nM; in assay [2] it was 41 nM.

As for `CCc1c(N2CCN(C(=O)c3ncnc(C)c3O)CC2)c(=O)n2nc(-c3ccc4c(c3)CC(C)O4)nc2n1CC(=O)Nc1ccc(C(F)(F)F)cc1Cl` (stereo unspecified) [WO2025049746, Example 168], the figures for the IC50 in assay [1] and in assay [2] were 45 nM and 35 nM, respectively.

`CCc1c(N2CCN(C(=O)c3ncnc(C)c3O)CC2)c(=O)n2nc(-c3cc4c(cc3F)OCC4)nc2n1CC(=O)Nc1ccc(C(F)(F)F)cc1Cl` [WO2025049746, Example 169]: the IC50 was found to be 26 nM in assay [1] and 25 nM in assay [2].

Take `CCc1c(N2CCN(C(=O)c3ncnc(C)c3O)CC2)c(=O)n2nc(-c3ccc4c(c3)C(C)CO4)nc2n1CC(=O)Nc1ccc(C(F)(F)F)cc1Cl` (stereo unspecified) [WO2025049746, Example 170]: the IC50 in assay [1] is 51 nM; in assay [2] it was 41 nM.

Consider `CCc1c(N2CCN(C(=O)c3ncnc(C)c3O)CC2)c(=O)n2nc(-c3cc(C)c4c(c3)CCO4)nc2n1CC(=O)Nc1ccc(C(F)(F)F)cc1Cl` [WO2025049746, Example 171], for which the IC50 worked out at 58 nM in assay [1] and 42 nM in assay [2].

Regarding `CCc1c(N2CCN(C(=O)c3ncnc(C)c3O)CC2)c(=O)n2nc(-c3ccc4c(c3)C(C)(C)OC4(C)C)nc2n1CC(=O)Nc1ccc(C(F)(F)F)cc1Cl` [WO2025049746, Example 172], the IC50 in assay [1] worked out at 124 nM; in assay [2], 87 nM.

Take `CCc1c(N2CCN(C(=O)c3ncnc(C)c3O)CC2)c(=O)n2nc(-c3cc(F)c4c(c3)CCO4)nc2n1CC(=O)Nc1ccc(C(F)(F)F)cc1Cl` [WO2025049746, Example 173]: the 50% inhibitory concentration (IC50) in assay [1] came to 36 nM; in assay [2] it was 28 nM.

As to `CCc1c(N2CCN(C(=O)c3ncnc(C)c3O)CC2)c(=O)n2nc(-c3cc4c(cc3C)OCC4)nc2n1CC(=O)Nc1ccc(C(F)(F)F)cc1Cl` [WO2025049746, Example 174], the IC50 in assay [1] stood at 59 nM; in assay [2], 31 nM.

Turning to `CCc1c(N2CCN(C(=O)c3ncnc(C)c3O)CC2)c(=O)n2nc(-c3ccc4c(c3)n(C)c(=O)n4C)nc2n1CC(=O)Nc1ccc(C(F)(F)F)cc1Cl` [WO2025049746, Example 175], the figures for the half-maximal inhibitory concentration (IC50) in assay [1] and in assay [2] were 52 nM and 30 nM, respectively.

On to `CCc1c(N2CCN(C(=O)c3ncnc(C)c3O)CC2)c(=O)n2nc(-c3ccn4nccc4c3)nc2n1CC(=O)Nc1ccc(C(F)(F)F)cc1Cl` [WO2025049746, Example 176], for which the IC50 was determined as 95 nM in assay [1] and 76 nM in assay [2].

For `CCc1c(N2CCN(C(=O)c3ncnc(C)c3O)CC2)c(=O)n2nc(-c3ccc4cn(C)nc4c3)nc2n1CC(=O)Nc1ccc(C(F)(F)F)cc1Cl` [WO2025049746, Example 177], the 50% inhibitory concentration (IC50) amounted to 31 nM in assay [1] and 30 nM in assay [2].

On to `CCc1c(N2CCN(C(=O)c3ncnc(C)c3O)CC2)c(=O)n2nc(-c3ccc4c(c3)C(F)(F)CC4)nc2n1CC(=O)Nc1ccc(C(F)(F)F)cc1Cl` [WO2025049746, Example 178], for which the IC50 in assay [1] came out at 42 nM; in assay [2] it was 39 nM.

With `CCc1c(N2CCN(C(=O)c3ncnc(C)c3O)CC2)c(=O)n2nc(-c3ccc4c(c3)OC(F)(F)O4)nc2n1CC(=O)Nc1ccc(C(F)(F)F)cc1Cl` [WO2025049746, Example 179], the results for the IC50 in assay [1] and in assay [2] were 77 nM and 59 nM, respectively.

As for `CCc1c(N2CCN(C(=O)c3ncnc(C)c3O)CC2)c(=O)n2nc(-c3ccc4c(c3F)CCO4)nc2n1CC(=O)Nc1ccc(C(F)(F)F)cc1Cl` [WO2025049746, Example 180], the IC50 stood at 53 nM in assay [1] and 45 nM in assay [2].

On to `CCc1c(N2CCN(C(=O)c3ncnc(C)c3O)CC2)c(=O)n2nc(-c3ccc4c(c3)C[C@H](OC)C4)nc2n1CC(=O)Nc1ccc(C(F)(F)F)cc1Cl` [WO2025049746, Example 181], for which the IC50 in assay [1] is 38 nM; in assay [2], 33 nM.

With `CCc1c(N2CCN(C(=O)c3ncnc(C)c3O)CC2)c(=O)n2nc(-c3ccc4c(c3)C[C@@H](OC)C4)nc2n1CC(=O)Nc1ccc(C(F)(F)F)cc1Cl` [WO2025049746, Example 182], the IC50 is 37 nM in assay [1] and 31 nM in assay [2].

`CCc1c(N2CCN(C(=O)c3ncnc(C)c3O)CC2)c(=O)n2nc(-c3cc4n(n3)CCC4)nc2n1CC(=O)Nc1ccc(C(F)(F)F)cc1Cl` [WO2025049746, Example 183]: the 50% inhibitory concentration (IC50) in assay [1] came to 52 nM; in assay [2], 46 nM.

For the compound `CCc1c(N2CCN(C(=O)c3ncnc(C)c3O)CC2)c(=O)n2nc(-c3cc4n(n3)CCCC4)nc2n1CC(=O)Nc1ccc(C(F)(F)F)cc1Cl` [WO2025049746, Example 184], the half-inhibitory concentration (IC50) was determined as 68 nM in assay [1] and 58 nM in assay [2].

As to `CCc1c(N2CCN(C(=O)c3ncnc(C)c3O)CC2)c(=O)n2nc(-c3ccc4c(c3)CN(C)C4=O)nc2n1CC(=O)Nc1ccc(C(F)(F)F)cc1Cl` [WO2025049746, Example 185], the half-maximal inhibitory concentration (IC50) is 32 nM in assay [1] and 26 nM in assay [2].

On to `CCc1c(N2CCN(C(=O)c3ncnc(C)c3O)CC2)c(=O)n2nc(-c3ccc4c(c3)C(=O)N(C)C4)nc2n1CC(=O)Nc1ccc(C(F)(F)F)cc1Cl` [WO2025049746, Example 186], for which the values for the IC50 in assay [1] and in assay [2] were 52 nM and 45 nM, respectively.

`CCc1c(N2CCN(C(=O)c3ncnc(C)c3O)CC2)c(=O)n2nc(-c3ccc4c(c3)CCC4(F)F)nc2n1CC(=O)Nc1ccc(C(F)(F)F)cc1Cl` [WO2025049746, Example 187]: the values for the IC50 in assay [1] and in assay [2] were 170 nM and 75 nM, respectively.

For `CCc1c(N2CCN(C(=O)c3ncnc(C)c3O)CC2)c(=O)n2nc(-c3ccc4c(c3)C(=O)NC4)nc2n1CC(=O)Nc1ccc(C(F)(F)F)cc1Cl` [WO2025049746, Example 188], the IC50 in assay [1] is 52 nM; in assay [2], 30 nM.

For `CCc1c(N2CCN(C(=O)c3ncnc(C)c3O)CC2)c(=O)n2nc(-c3ccc4c(c3)[C@H](C)OC4)nc2n1CC(=O)Nc1ccc(C(F)(F)F)cc1Cl` [WO2025049746, Example 189], the half-maximal inhibitory concentration (IC50) in assay [1] amounted to 34 nM; in assay [2] it was 29 nM.

For the compound `CCc1c(N2CCN(C(=O)c3ncnc(C)c3O)CC2)c(=O)n2nc(-c3ccc4c(c3)[C@@H](C)OC4)nc2n1CC(=O)Nc1ccc(C(F)(F)F)cc1Cl` [WO2025049746, Example 190], the 50% inhibitory concentration (IC50) in assay [1] worked out at 38 nM; in assay [2], 30 nM.

Take `CCc1c(N2CCN(C(=O)c3ncnc(C)c3O)CC2)c(=O)n2nc(-c3ccc4c(c3)CO[C@@H]4C)nc2n1CC(=O)Nc1ccc(C(F)(F)F)cc1Cl` [WO2025049746, Example 191]: the half-maximal inhibitory concentration (IC50) in assay [1] stood at 53 nM; in assay [2] it was 44 nM.

As for `CCc1c(N2CCN(C(=O)c3ncnc(C)c3O)CC2)c(=O)n2nc(-c3ccc4c(c3)CO[C@H]4C)nc2n1CC(=O)Nc1ccc(C(F)(F)F)cc1Cl` [WO2025049746, Example 192], the half-inhibitory concentration (IC50) in assay [1] turned out to be 40 nM; in assay [2], 31 nM.

Consider `CCc1c(N2CCN(C(=O)c3ncnc(C)c3O)CC2)c(=O)n2nc(-c3ccc4c(c3)C(C)(C)CO4)nc2n1CC(=O)Nc1ccc(C(F)(F)F)cc1Cl` [WO2025049746, Example 193], for which the 50% inhibitory concentration (IC50) turned out to be 73 nM in assay [1] and 53 nM in assay [2].

Regarding `CCc1c(N2CCN(C(=O)c3ncnc(C)c3O)CC2)c(=O)n2nc(-c3ccc4c(c3)CC(C)(C)O4)nc2n1CC(=O)Nc1ccc(C(F)(F)F)cc1Cl` [WO2025049746, Example 194], the half-inhibitory concentration (IC50) amounted to 81 nM in assay [1] and 67 nM in assay [2].

Consider `CCc1c(N2CCN(C(=O)c3ncnc(C)c3O)CC2)c(=O)n2nc(-c3ccc4c(c3)CCOC4(C)C)nc2n1CC(=O)Nc1ccc(C(F)(F)F)cc1Cl` [WO2025049746, Example 195], for which the IC50 in assay [1] amounted to 45 nM; in assay [2], 39 nM.

On to `CCc1c(N2CCN(C(=O)c3ncnc(C)c3O)CC2)c(=O)n2nc(-c3ccc4c(c3)CN(C)C4)nc2n1CC(=O)Nc1ccc(C(F)(F)F)cc1Cl` [WO2025049746, Example 197], for which the IC50 in assay [1] is 50 nM; in assay [2], 52 nM.

For `CCc1c(N2CCN(C(=O)c3ncnc(C)c3O)CC2)c(=O)n2nc(-c3ccc4c(c3)N(C)C(=O)CO4)nc2n1CC(=O)Nc1ccc(C(F)(F)F)cc1Cl` [WO2025049746, Example 198], the IC50 in assay [1] was 48 nM; in assay [2] it was 33 nM.

With `CCc1c(N2CCN(C(=O)c3ncnc(C)c3O)CC2)c(=O)n2nc(-c3ccc4c(c3)CCN4C)nc2n1CC(=O)Nc1ccc(C(F)(F)F)cc1Cl` [WO2025049746, Example 199], the IC50 in assay [1] is 40 nM; in assay [2], 32 nM.

`CCc1c(N2CCN(C(=O)c3ncnc(C)c3O)CC2)c(=O)n2nc(-c3cc4c(cc3F)COC4)nc2n1CC(=O)Nc1ccc(C(F)(F)F)cc1Cl` [WO2025049746, Example 201]: the half-inhibitory concentration (IC50) in assay [1] is 25 nM; in assay [2], 21 nM.

Consider `CCc1c(N2CCN(C(=O)c3ncnc(C)c3O)CC2)c(=O)n2nc(-c3cc(F)c4c(c3)COC4)nc2n1CC(=O)Nc1ccc(C(F)(F)F)cc1Cl` [WO2025049746, Example 202], for which the IC50 is 40 nM in assay [1] and 32 nM in assay [2].

As for `CCc1c(N2CCN(C(=O)c3ncnc(C)c3O)CC2)c(=O)n2nc(-c3cc4c(cc3C)COC4)nc2n1CC(=O)Nc1ccc(C(F)(F)F)cc1Cl` [WO2025049746, Example 203], the IC50 in assay [1] was determined as 79 nM; in assay [2], 56 nM.

For the origin of these results see BindingDB's records for patent WO2025049746 (Eikon Therapeutics, 2025).
